Paper PMC10046907 (Current Issues in Molecular Biology, 2023)
Where two headings read alike, the source gives them in different places.

Assays:
[1] = target: neuraminidase from A/PR/8/34 (H1N1) (Influenza A virus, UniProt P03468); assay: biochemical; parameters: species or system influenza A viruses
[2] = target: neuraminidase from A/Chicken/Korea/MS96/96 (H9N2) (Influenza A virus (A/Chicken/Korea/MS96/96(H9N2)), UniProt Q9J458); format: biochemical, influenza A viruses; details: read-out: Neuraminiase IC50
influenza vRNA (M gene) = format: cell-based, influenza virus; details: 20 μM, all virus strains, at 12 and 18 h, vs infected/untreated cells (0.5% DMSO)
influenza vRNA (NP gene) = format: cell-based, influenza virus
p-Akt (Serine 473) = assay: Western blot of p-Akt in influenza-infected MDCK cells; format: cell-based, canine; details: 20 μM, after viral infection, vs viral-infected/untreated cells
influenza virus NS1 = format: cell-based
[3] = system: influenza RNP export from the nucleus to the cytoplasm; assay: Confocal fluorescence imaging of influenza RNP nuclear export; format: cell-based, influenza virus (H1N1); details: 20 μM, H1N1-infected MDCK cells, 10 h
Method: MDCK cells were grown on a chamber slide, pre-coated with poly-L-lysine, and the monolayers were infected with influenza virus at 0.001 MOI for 1 h. The virus was removed and replaced by EMEM containing 10 μg/mL trypsin and each compound under test. All cells were cultured for 10 h at 37 °C in a 5% CO2 atmosphere and fixed in 4% paraformaldehyde solution for 15 min at room temperature. After washing, the cells were incubated at 37 °C for 1 h with an FITC-conjugated nucleoprotein (NP)-specific monoclonal antibody against influenza virus (Millipore, MA, USA) diluted at 1:50. After washing with PBS, cells were counterstained with 500 nM propidium iodide solution. Slides were mounted using the SlowFade Gold antifade reagent (Invitrogen, CA, USA). Confocal fluorescence imaging was performed using the Carl Zeiss LSM 510 META confocal microscope (Carl Zeiss Inc., Jena, Germany).
Figure 3 18-Hydroxyferruginol (1) and 18-oxoferruginol (2) inhibit the export of the influenza virus RNP complex from the nucleus to the cytoplasm. MDCK cells were infected with H1N1 at 0.001 MOI in the presence of 0.5% DMSO, 50 μM LY294002, 20 μM 18-hydroxyferruginol (1), or 20 μM 18-oxoferruginol (2). After 10 h, the cells were fixed in 4% paraformaldehyde. After blocking, the cells were incubated with the anti-NP antibody (green). Propidium iodide was used as a nuclear counterstain (red). Scale bar = 10 µm.

ERK phosphorylation = assay: Western blot of p-ERK in influenza-infected MDCK cells; format: cell-based, canine; details: 10 h; for viral-infection-induced ERK phosphorylation: 20 μM
[4] = system: phosphorylation of MEK1/2; assay: Western blot of p-MEK1/2 in influenza-infected MDCK cells; format: cell-based, canine; details: 20 μM, 10 h, all strains
influenza virus NP = format: cell-based
A/PR/8/34 (H1N1) [5] = details: dog
[6] = system: A/Chicken/Korea/MS96/96 (H9N2); details: dog
in vitro = details: dog
A/PR/8/34 (H1N1) [7] = assay: in vitro; details: dog, SI (selective index, CC50/IC50)
[8] = system: A/Chicken/Korea/MS96/96 (H9N2); assay: in vitro; details: dog, SI (selective index, CC50/IC50)
A/PR/8/34 (H1N1) [9] = assay: microbe, parasite or virus in culture; details: Influenza A virus, MDCK, 72 h
[10] = system: A/Chicken/Korea/MS96/96 (H9N2); assay: microbe, parasite or virus in culture; details: Influenza A virus, H9N2, MDCK, in Gallus gallus, 72 h
A/Hong Kong/8/68 (H3N2) [11] = details: dog
A/Hong Kong/8/68 (H3N2) [12] = assay: in vitro; details: dog, SI (selective index, CC50/IC50)
A/Hong Kong/8/68 (H3N2) [13] = assay: microbe, parasite or virus in culture; details: Influenza A virus, H3N2, MDCK, 72 h
[14] = 20 μM, all three strains, 10 h after infection

neuraminidase from A/PR/8/34 (H1N1), sequence (P03468 whole entry, looked up): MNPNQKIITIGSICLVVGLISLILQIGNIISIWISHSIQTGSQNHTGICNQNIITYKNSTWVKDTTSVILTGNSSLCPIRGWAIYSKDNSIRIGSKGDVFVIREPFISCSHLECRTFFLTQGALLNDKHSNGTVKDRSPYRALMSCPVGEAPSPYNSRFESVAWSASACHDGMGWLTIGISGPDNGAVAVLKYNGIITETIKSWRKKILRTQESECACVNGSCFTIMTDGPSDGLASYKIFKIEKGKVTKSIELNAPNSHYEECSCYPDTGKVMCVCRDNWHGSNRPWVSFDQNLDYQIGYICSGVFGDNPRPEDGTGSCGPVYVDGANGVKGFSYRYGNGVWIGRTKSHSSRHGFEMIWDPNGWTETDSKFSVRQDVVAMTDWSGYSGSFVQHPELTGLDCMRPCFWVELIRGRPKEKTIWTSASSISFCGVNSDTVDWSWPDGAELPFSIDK

SMILES | IC50 [1] [µM] | IC50 [2] [µM] | decrease of influenza vRNA levels (M gene) (influenza vRNA (M gene)) | reduction of influenza vRNA levels (NP gene) (influenza vRNA (NP gene); [14]) | p-Akt levels (p-Akt (Serine 473)) | accumulation of viral protein NS1 (influenza virus NS1) | influenza RNP export from the nucleus to the cytoplasm [3] | viral-infection-induced ERK phosphorylation (ERK phosphorylation) | phosphorylation of MEK1/2 induced by infection [4] | levels of influenza virus NP (influenza virus NP) | toxic effect on MDCK cells (MDCK cells) | SI (selective index, CC50/IC50) (A/PR/8/34 (H1N1) [5]) | SI (selective index, CC50/IC50) [6] | CC50 (in vitro) [µM] | selectivity ratio (A/PR/8/34 (H1N1) [7]) | selectivity ratio [8] | IC50 (A/PR/8/34 (H1N1) [9]) [µM] | IC50 [10] [µM] | IC50 (A/Hong Kong/8/68 (H3N2) [13]) [µM] | further results
CC(C)c1cc2c(cc1O)[C@@]1(C)CCC[C@@](C)(CO)[C@@H]1CC2 [Compound 1, 18-hydroxyferruginol] | > 100 | 82.2 | 65.3–91.6% | 2–2.5 fold | decreased p-Akt levels | markedly decreased | reduction in influenza RNP export from the nucleus to the cytoplasm | inhibited viral-infection-induced ERK phosphorylation | inhibited | reduction in the levels of influenza virus NP | no toxic effect | 2.61 | 2.77 | 35.5 ± 0.4 | 1.68 | 1.79 | 13.6 ± 1.4 | 12.8 ± 0.1 |  | 
CC(C)c1cc2c(cc1O)[C@@]1(C)CCC[C@@](C)(C=O)[C@@H]1CC2 [Compound 2, 18-oxoferruginol] | > 100 | > 100 | 60.7–92.4% | 2–3 fold | decreased p-Akt levels | markedly decreased | reduction in influenza RNP export from the nucleus to the cytoplasm | inhibited viral-infection-induced ERK phosphorylation | inhibited | reduction in the levels of influenza virus NP | no toxic effect | 2.25 | 3.81 | 41.2 ± 1.5 | 2.13 | 3.6 | 18.3 ± 6.5 | 10.8 ± 2.2 | 29.2 ± 1.9 | SI (selective index, CC50/IC50) (A/Hong Kong/8/68 (H3N2) [11]): 1.41; selectivity ratio (A/Hong Kong/8/68 (H3N2) [12]): 1.33
O=c1cc(N2CCOCC2)oc2c(-c3ccccc3)cccc12 [LY294002, reference compound] |  |  |  |  |  |  |  |  |  |  |  |  |  |  |  |  |  |  |  | reduction of influenza vRNA levels (NP gene) (influenza vRNA (NP gene); 50 μM, all three strains, 10 h after infection): 3.3–5.2 fold; ERK phosphorylation (ERK phosphorylation; 50 μM): strongly inhibited ERK phosphorylation
CCOC(=O)C1=C[C@@H](OC(CC)CC)[C@H](NC(C)=O)[C@@H](N)C1 [Olseltamivir, oseltamivir, reference compound] |  |  |  |  |  |  |  |  |  |  |  |  |  | > 500 |  |  | 1.35 ± 1.2 | < 0.7 | 1.09 ± 0.5 | 
COc1cccc(-c2cc(=O)c3ccccc3o2)c1N [PD98059, reference compound] |  |  |  |  |  |  |  |  |  |  |  |  |  |  |  |  |  |  |  | reduction of influenza vRNA levels (NP gene) (influenza vRNA (NP gene)): 4.3–9.1 fold
